From ChEMBL document CHEMBL1153627, “Optimization of piperidin-4-yl-urea-containing melanin-concentrating hormone receptor 1 (MCH-R1) antagonists: Reducing hERG-associated liabilities” (Bioorg Med Chem Lett, 2009)

Test: Clearance in rat
Type: ADME, organism-based
Settings: in vivo

clearance: 9.24 L/h/kg
Structure (SMILES): O=C(NC1CCN(Cc2ccn(-c3ccc(C(F)(F)F)cc3)c2)CC1)N[C@H](CO)c1ccccc1
